The results in this text go back to PubChem BioAssay (NCI).

Among the test systems are HOP-92 NSCLC; LOX IMVI melanoma; NCI-H226 lung; OVCAR-4 ovarian; OVCAR-8 ovarian; SF-268 CNS; SF-539 CNS; UO-31 renal; HCT-116 colon; CAKI-1 renal.
What all share (test): DTP human tumour cell line panel, 48 h

Several values for one entry are separate records, joined by “and”; a condition that tells them apart may be missing. Equal entries are not always repeated.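 Exposure lasted 48 hours, with cells grown in 96-well plates and compounds tested at five concentrations. Here, GI50 denotes the concentration required for 50% inhibition of growth. The concentration for full growth arrest is given as TGI.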 Where only a bound is given, the exact number is not on record here.

Consider `CN(C)CCCNC(=O)c1cc(NC(=O)c2cc(NC(=O)CCc3c[nH]c4ccccc34)cn2C)cn1C`, for which the GI50 in the assay on HOP-92 NSCLC was 72.8 µM; with LOX IMVI melanoma, more than 100 µM; with NCI-H226 lung, more than 100 µM; with OVCAR-4 ovarian it was more than 100 µM; in the assay with OVCAR-8 ovarian it was more than 100 µM; in the assay on SF-268 CNS, more than 100 µM. The GI50 in the assay on SF-539 CNS and in the assay on UO-31 renal was more than 100 µM throughout. Moreover, the total growth inhibition concentration (TGI) with HOP-92 NSCLC, with LOX IMVI melanoma, in the assay with NCI-H226 lung, in the assay with OVCAR-4 ovarian, with OVCAR-8 ovarian and with SF-268 CNS was more than 100 µM throughout. Moreover, the TGI in the assay with SF-539 CNS and in the assay with UO-31 renal was more than 100 µM each time.
Turning to `CN[C@H]1C=C[C@@H]2/C=C(C)/C=C/[C@@H](C)[C@H]([C@H](C)[C@H](O)[C@@H](C)NC(C)=O)OC(=O)/C=C/C=C(C)\C=C\[C@]2(C)C1`, the 50% growth inhibitory concentration (GI50) was < 0.001 µM and 0.0049 µM in the assay with HCT-116 colon; < 0.001 µM and 0.0049 µM in the assay on HOP-92 NSCLC; 0.0049 µM in the assay on LOX IMVI melanoma; 0.00743 µM in the assay on NCI-H226 lung; 7.12 µM in the assay on OVCAR-4 ovarian; 0.00922 µM in the assay on OVCAR-8 ovarian. Besides, the GI50 in the assay with SF-268 CNS was 0.0821 µM and 0.042 µM; in the assay on SF-539 CNS, < 0.001 µM and 0.0049 µM; in the assay with UO-31 renal it was 0.00994 µM. For the same molecule, the TGI is 40.4 µM in the assay with HCT-116 colon; 0.0661 µM and 0.0222 µM with HOP-92 NSCLC; 0.00504 µM in the assay with LOX IMVI melanoma; 10.3 µM in the assay on NCI-H226 lung; more than 49 µM in the assay with OVCAR-4 ovarian; more than 49 µM in the assay on OVCAR-8 ovarian. In addition, the values for the concentration for total growth inhibition (TGI) with SF-268 CNS, with SF-539 CNS and in the assay on UO-31 renal were more than 49 µM, 12.8 µM and more than 49 µM, respectively.
Regarding `Cc1ccc(SC(CCC(Sc2ccc(C)cc2)Sc2ccc(C)cc2)Sc2ccc(C)cc2)cc1`, the TGI in the assay with CAKI-1 renal, in the assay with HCT-116 colon, with HOP-92 NSCLC, in the assay with LOX IMVI melanoma, in the assay on OVCAR-4 ovarian and with OVCAR-8 ovarian was more than 100 µM each time. In addition, the concentration for total growth inhibition (TGI) in the assay with SF-268 CNS, in the assay with SF-539 CNS and in the assay on UO-31 renal was more than 100 µM in each case.
`O=C1c2ccccc2C(Br)(Br)c2ccccc21`: the concentration for total growth inhibition (TGI) in the assay on HCT-116 colon was more than 31.6 µM; in the assay on HOP-92 NSCLC, more than 100 µM; with LOX IMVI melanoma, more than 31.6 µM; with NCI-H226 lung, more than 31.6 µM; in the assay on OVCAR-4 ovarian, more than 31.6 µM; in the assay on OVCAR-8 ovarian, more than 100 µM. In addition, the TGI with SF-268 CNS is more than 31.6 µM; in the assay on SF-539 CNS, more than 100 µM; in the assay on UO-31 renal, more than 31.6 µM.
Consider `COc1ccc2c(CN3CCCCC3CO)cc3cc(OC)c(OC)cc3c2c1` (stereo not given), for which the concentration for total growth inhibition (TGI) in the assay on HCT-116 colon turned out to be 13.7 µM; in the assay with HOP-92 NSCLC it was 9.82 µM; in the assay on LOX IMVI melanoma it was 13.7 µM; with NCI-H226 lung it was 16.7 µM; in the assay with OVCAR-8 ovarian, 19.9 µM; with SF-268 CNS it was 20.1 µM. Moreover, the total growth inhibition concentration (TGI) in the assay with SF-539 CNS was found to be 15 µM; in the assay on UO-31 renal, 12.5 µM.
For the molecule `CN(C)CCCOc1ccc(-c2ccc3ncc4c(c3c2)n(C2CCOCC2)c(=O)n4C)cn1`, the GI50 with HCT-116 colon is 3.12 µM; in the assay with HOP-92 NSCLC it was 0.218 µM; in the assay on LOX IMVI melanoma, 1.13 µM; in the assay with NCI-H226 lung it was 1.73 µM; in the assay on OVCAR-4 ovarian, 1.34 µM; with OVCAR-8 ovarian it was 3.24 µM. For the same molecule, the results for the GI50 in the assay on SF-268 CNS, in the assay on SF-539 CNS and with UO-31 renal were 2.04 µM, 1.52 µM and 0.494 µM, respectively. Further, the concentration for total growth inhibition (TGI) with HCT-116 colon turned out to be 16.6 µM; in the assay with HOP-92 NSCLC, 1.61 µM; in the assay on LOX IMVI melanoma, 6.51 µM; in the assay with NCI-H226 lung, 15.2 µM; in the assay on OVCAR-4 ovarian it was 11.3 µM; in the assay with OVCAR-8 ovarian, 17.2 µM. Also, the concentration for total growth inhibition (TGI) with SF-268 CNS is 29.5 µM; in the assay on SF-539 CNS, 6.21 µM; in the assay on UO-31 renal it was 5.89 µM.
As to `CN(C)CC(C)(C)/C(=N\Nc1ccccc1)c1ccccc1`, the concentration for total growth inhibition (TGI) with HCT-116 colon was more than 100 µM; with LOX IMVI melanoma, 37.6 µM; in the assay on OVCAR-4 ovarian, more than 100 µM; with OVCAR-8 ovarian, more than 100 µM; in the assay with SF-268 CNS, more than 100 µM; in the assay on SF-539 CNS, 63.4 µM. The same molecule had a concentration for total growth inhibition (TGI) in the assay with UO-31 renal of 29.3 µM.
As for `CCCCCC(=O)C(C)C1=Nc2nnc(CCCCCCCc3nnc4n3C(=O)C(C(C)C(=O)CCCCC)=N4)n2C1=O` (stereo not given), the TGI with CAKI-1 renal, in the assay with HCT-116 colon, in the assay on LOX IMVI melanoma, with NCI-H226 lung, in the assay with OVCAR-4 ovarian and with OVCAR-8 ovarian was more than 100 µM each time. Besides, the total growth inhibition concentration (TGI) with SF-268 CNS, with SF-539 CNS and in the assay with UO-31 renal was more than 100 µM each time.
In the case of `COc1cc(NC(N)=NCCC(C)(C)Oc2ccc(C(F)(F)F)cc2)ncc1C#N`, the GI50 in the assay on CAKI-1 renal is 1.55 µM; in the assay with HCT-116 colon it was 1.46 µM; with HOP-92 NSCLC it was 1.38 µM; in the assay with LOX IMVI melanoma, 1.6 µM; with OVCAR-4 ovarian it was 1.58 µM; in the assay on OVCAR-8 ovarian, 1.79 µM. Moreover, the values for the GI50 in the assay on SF-268 CNS, in the assay on SF-539 CNS and in the assay with UO-31 renal were 1.72 µM, 1.8 µM and 1.48 µM, respectively. In addition, the TGI with CAKI-1 renal came out at 2.9 µM; in the assay with HCT-116 colon, 2.83 µM; in the assay on HOP-92 NSCLC, 2.8 µM; in the assay with LOX IMVI melanoma, 3.01 µM; in the assay with OVCAR-4 ovarian, 3.07 µM; with OVCAR-8 ovarian, 3.54 µM. Moreover, the TGI with SF-268 CNS is 3.31 µM; with SF-539 CNS, 3.26 µM; in the assay on UO-31 renal, 2.85 µM.
Turning to `CCc1cccc(C)c1NC(=O)c1sc2nc3c(cc2c1N)CCCCC3`, the GI50 was 3.58 µM in the assay with HCT-116 colon; 13.3 µM in the assay on HOP-92 NSCLC; 5.3 µM in the assay with LOX IMVI melanoma; 14.5 µM in the assay with NCI-H226 lung; 8.37 µM with OVCAR-4 ovarian; 3.72 µM in the assay on OVCAR-8 ovarian. The GI50 in the assay with SF-268 CNS is 7.69 µM; in the assay with SF-539 CNS, 2.29 µM; in the assay with UO-31 renal, 6.08 µM. Further, the TGI is more than 100 µM in the assay on HCT-116 colon; 60.3 µM in the assay with HOP-92 NSCLC; 91.5 µM in the assay with LOX IMVI melanoma; more than 100 µM in the assay with NCI-H226 lung; more than 100 µM with OVCAR-4 ovarian; more than 100 µM in the assay on OVCAR-8 ovarian. For the same molecule, the TGI in the assay on SF-268 CNS was more than 100 µM; in the assay with SF-539 CNS, 8.21 µM; in the assay with UO-31 renal it was more than 100 µM.
